Experimental data: patent US20260216195A1, “MUTANT-SELECTIVE EGFR INHIBITORS” (Dana-Farber Cancer Institute, Inc., priority 2023, published 2026)

Columns and labels:
[1] = biological target: EGFR L858R/T790M (Homo sapiens, UniProt P00533, L858R/T790M); assay: HTRF-based EGFR biochemical assay, L858R/T790M enzyme; conditions: L858R/T790M 0.02 nM enzyme, 100 μM ATP, 30 min preincubation, read-out: LRTM enzyme IC50
Procedure: (§1) EGFR biochemical activity measurements were carried out using the homogeneous time-resolved fluorescence (HTRF) assay (Cisbio). Inhibitors and DMSO normalizations were first dispensed to empty black low-volume 384-well plates (Corning) with D300 digital liquid dispenser (HP). All reactions were carried out at room temperature and solutions were added to plates with a Multidrop Combi Reagent Dispenser (ThermoFisher). The reaction mixture (10 μL final volume) contained 1 μM tyrosine kinase peptide-biotin substrate and mutant EGFR in a reaction buffer (50 mM HEPES pH 7.0, 5 mM MgCl2,1 mM MnCl2, 0.01% BSA, 2 mM TCEP, 0.1 mM NaVO4). Enzyme concentrations were adjusted to accommodate varying kinase activities (L858R 0.1 nM, L858R/T790M 0.02 nM). Enzyme reaction solution (2× concentrations, 5 μL) was added to 384-well plates containing compounds and incubated for 30 mins. Enzyme reactions were initiated with the addition of 5 μL of ATP to a final concentration of 100 μM and reacted for 20 mins. Reactions were quenched with the addition of 10 μL of phospho-tyrosine antibody-Europium(III) cryptate (1-to-180 volume ratio) and Streptavidin-XL665 (46.7 nM) in EDTA-containing detection buffer, then incubated at room temperature for 1 hour, and read with a PHERAstar plate reader (excitation=337 nm, emission=620 nm and 665 nm). IC50 values were determined by inhibition curves (11-point curves from 1.0 μM to 0.130 nM or 23-point curves from 1.0 μM to […]) in triplicate with non-linear least squares fit in GraphPad Prism 7.0d. The data obtained are shown in Table 2 below where “−” is indicative of an IC50 value of >5 nM “+” is indicative of an IC50 value of <5 nM, “++” is indicative of an IC50 value of <1 nM, and “+++” is indicative of an IC50 value of <0.5 nM.

[2] = biological target: EGFR L858R (Homo sapiens, UniProt P00533, L858R); assay: HTRF-based EGFR biochemical assay, L858R enzyme; conditions: L858R 0.1 nM enzyme, 100 μM ATP, 30 min preincubation, read-out: LR enzyme IC50
Procedure: as §1

[3] = biological target: EGFR mutant L858R Ba/F3 cells (Homo sapiens, UniProt P00533, L858R, cells depend on it); assay: Ba/F3 cell proliferation (Cell Titer Glo), EGFR L858R; format: cell-based, murine; conditions: 72 hours, read-out: BaF3 cell L858R IC50
From the text: (§2) The EGFR mutant L858R and L858R/T790M Ba/F3 cells have been previously described (Zhou, W., et al. Nature 462, 2009, 1070-1074). All cell lines were maintained in RPMI 1640 (Cellgro; Mediatech Inc., Herndon, CA) supplemented with 10% FBS, 100 units/mL penicillin, 100 units/mL streptomycin. The EGFR 1941R mutation was introduced via site directed mutagenesis using the Quick Change Site-Directed Mutagenesis kit (Stratagene; La Jolla, CA) according to the manufacturer's instructions. All constructs were confirmed by DNA sequencing. The constructs were shuttled into the retroviral vector JP1540 using the Cre-recombination system (Agilent Technologies, Santa Clara, CA). Ba/F3 cells were then infected with retrovirus per standard protocols, as described previously (Zhou, et al, Nature 2009). Stable clones were obtained by selection in puromycin (2 μg/ml).
(§3) Growth and inhibition of growth was assessed by the Cell Titer Glo assay (Promega, Madison, WI) and was performed according to the manufacturer's instructions. The Cell Titer Glo assay is a luminescence-based method used to determine the number of viable cells based on quantitation of the ATP present, which is directly proportional to the amount of metabolically active cells present. Ba/F3 cells of different EGFR genotypes were exposed to the compounds disclosed herein for 72 hours and the number of cells used per experiment was determined empirically as has been previously established (Zhou, et al., Nature 2009). All experimental points were set up in triplicates in 384-well plates and all experiments were repeated at least three times. […] The curves were fitted using a non-linear regression model with a sigmoidal dose response.

[4] = biological target: EGFR mutant L858R/T790M Ba/F3 cells (Homo sapiens, UniProt P00533, T790M/L858R, cells depend on it); assay: Ba/F3 cell proliferation (Cell Titer Glo), EGFR L858R/T790M; format: cell-based, murine; conditions: 72 hours, read-out: BaF3 cell L858R/T790M
From the text: as §2, §3

EGFR mutant L858R Ba/F3 cells, sequence (P00533 whole entry L858R): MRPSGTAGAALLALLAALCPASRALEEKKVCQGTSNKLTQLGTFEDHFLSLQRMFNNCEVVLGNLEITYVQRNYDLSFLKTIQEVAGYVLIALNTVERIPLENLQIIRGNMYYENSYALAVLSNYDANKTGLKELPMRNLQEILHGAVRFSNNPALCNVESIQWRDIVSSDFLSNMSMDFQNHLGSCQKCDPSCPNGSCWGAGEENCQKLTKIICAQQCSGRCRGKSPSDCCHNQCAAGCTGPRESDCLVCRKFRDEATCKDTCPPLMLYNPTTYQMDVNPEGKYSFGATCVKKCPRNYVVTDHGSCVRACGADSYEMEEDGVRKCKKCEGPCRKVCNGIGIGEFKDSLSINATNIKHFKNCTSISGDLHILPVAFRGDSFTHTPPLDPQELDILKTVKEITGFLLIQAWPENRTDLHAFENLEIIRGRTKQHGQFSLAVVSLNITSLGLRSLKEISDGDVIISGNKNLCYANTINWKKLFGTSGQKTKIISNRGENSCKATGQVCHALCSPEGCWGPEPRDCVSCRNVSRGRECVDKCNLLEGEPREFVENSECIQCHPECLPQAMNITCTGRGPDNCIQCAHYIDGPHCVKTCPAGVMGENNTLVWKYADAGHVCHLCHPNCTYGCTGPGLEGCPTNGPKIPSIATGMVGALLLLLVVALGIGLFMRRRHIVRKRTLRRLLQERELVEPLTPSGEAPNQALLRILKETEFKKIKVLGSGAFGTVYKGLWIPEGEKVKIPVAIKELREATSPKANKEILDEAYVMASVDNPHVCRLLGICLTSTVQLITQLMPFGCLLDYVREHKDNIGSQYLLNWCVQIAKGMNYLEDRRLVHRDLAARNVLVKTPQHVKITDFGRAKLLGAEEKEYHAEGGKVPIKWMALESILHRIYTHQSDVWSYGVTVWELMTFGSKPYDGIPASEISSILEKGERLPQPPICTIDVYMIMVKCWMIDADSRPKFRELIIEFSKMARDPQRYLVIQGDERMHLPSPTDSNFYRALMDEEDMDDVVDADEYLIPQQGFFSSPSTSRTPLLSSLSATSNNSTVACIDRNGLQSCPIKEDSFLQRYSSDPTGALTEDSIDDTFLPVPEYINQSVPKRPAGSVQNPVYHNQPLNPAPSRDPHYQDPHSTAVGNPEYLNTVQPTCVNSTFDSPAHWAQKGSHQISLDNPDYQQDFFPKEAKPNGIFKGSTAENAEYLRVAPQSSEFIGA
EGFR L858R/T790M, sequence (P00533 25-1210 T790M/L858R): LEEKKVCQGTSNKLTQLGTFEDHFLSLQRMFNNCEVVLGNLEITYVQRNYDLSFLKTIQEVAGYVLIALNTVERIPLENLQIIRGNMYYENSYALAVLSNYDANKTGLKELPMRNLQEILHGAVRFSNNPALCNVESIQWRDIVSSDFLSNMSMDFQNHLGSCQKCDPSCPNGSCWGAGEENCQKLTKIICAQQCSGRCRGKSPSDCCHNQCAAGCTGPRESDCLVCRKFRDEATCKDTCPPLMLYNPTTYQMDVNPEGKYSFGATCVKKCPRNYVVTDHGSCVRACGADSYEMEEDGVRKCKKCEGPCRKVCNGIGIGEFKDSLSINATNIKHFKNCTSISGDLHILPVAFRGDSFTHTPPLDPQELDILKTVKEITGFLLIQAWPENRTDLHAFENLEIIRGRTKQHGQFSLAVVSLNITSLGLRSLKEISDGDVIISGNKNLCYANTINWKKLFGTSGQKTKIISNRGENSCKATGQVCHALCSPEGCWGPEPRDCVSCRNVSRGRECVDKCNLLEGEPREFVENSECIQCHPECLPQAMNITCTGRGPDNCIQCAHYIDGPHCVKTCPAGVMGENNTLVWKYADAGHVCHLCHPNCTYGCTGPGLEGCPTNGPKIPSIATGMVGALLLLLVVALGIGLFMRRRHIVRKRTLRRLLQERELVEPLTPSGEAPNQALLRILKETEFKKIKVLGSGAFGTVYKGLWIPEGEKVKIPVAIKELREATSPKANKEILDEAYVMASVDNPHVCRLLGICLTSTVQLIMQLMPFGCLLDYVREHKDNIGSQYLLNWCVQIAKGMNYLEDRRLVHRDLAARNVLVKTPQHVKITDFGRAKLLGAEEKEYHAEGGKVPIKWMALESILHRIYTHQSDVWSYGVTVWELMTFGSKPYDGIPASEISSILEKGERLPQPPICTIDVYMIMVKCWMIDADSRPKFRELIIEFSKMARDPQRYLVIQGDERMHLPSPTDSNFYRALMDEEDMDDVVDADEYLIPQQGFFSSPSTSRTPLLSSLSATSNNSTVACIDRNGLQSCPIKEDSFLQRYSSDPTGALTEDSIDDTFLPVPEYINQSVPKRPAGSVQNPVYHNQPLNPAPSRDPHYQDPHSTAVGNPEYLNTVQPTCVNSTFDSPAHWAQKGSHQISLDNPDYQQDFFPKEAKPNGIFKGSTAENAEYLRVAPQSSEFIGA
EGFR L858R, sequence (P00533 25-1210 L858R): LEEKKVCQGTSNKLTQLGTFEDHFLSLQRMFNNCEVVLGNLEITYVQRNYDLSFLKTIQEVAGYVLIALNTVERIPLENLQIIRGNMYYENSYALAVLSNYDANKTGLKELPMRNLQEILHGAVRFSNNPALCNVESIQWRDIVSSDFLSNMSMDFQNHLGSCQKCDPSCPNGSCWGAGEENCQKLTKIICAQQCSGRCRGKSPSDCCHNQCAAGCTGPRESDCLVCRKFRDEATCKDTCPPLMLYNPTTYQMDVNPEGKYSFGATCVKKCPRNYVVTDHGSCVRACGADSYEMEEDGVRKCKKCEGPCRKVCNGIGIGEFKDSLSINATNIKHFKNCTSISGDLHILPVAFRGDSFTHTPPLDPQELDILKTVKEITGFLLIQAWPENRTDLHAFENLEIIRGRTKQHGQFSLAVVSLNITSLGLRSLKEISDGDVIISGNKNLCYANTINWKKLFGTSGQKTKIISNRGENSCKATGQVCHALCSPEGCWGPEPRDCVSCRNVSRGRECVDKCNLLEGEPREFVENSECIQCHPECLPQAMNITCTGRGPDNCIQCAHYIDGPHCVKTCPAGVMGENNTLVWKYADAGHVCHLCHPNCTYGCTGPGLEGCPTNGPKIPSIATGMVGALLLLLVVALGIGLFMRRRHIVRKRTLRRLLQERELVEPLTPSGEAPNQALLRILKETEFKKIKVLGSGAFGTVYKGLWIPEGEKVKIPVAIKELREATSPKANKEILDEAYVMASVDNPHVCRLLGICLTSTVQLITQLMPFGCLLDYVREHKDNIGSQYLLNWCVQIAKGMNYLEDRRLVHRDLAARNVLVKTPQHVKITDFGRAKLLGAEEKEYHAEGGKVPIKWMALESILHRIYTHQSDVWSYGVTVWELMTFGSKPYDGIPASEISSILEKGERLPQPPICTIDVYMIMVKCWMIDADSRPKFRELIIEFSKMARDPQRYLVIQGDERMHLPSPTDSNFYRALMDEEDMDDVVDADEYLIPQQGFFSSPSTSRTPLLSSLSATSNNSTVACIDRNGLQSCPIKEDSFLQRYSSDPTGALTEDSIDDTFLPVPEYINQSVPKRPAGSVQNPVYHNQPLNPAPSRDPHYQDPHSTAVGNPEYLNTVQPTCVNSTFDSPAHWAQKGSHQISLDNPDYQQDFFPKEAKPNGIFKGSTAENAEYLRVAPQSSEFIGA
EGFR mutant L858R/T790M Ba/F3 cells, sequence (P00533 whole entry T790M/L858R): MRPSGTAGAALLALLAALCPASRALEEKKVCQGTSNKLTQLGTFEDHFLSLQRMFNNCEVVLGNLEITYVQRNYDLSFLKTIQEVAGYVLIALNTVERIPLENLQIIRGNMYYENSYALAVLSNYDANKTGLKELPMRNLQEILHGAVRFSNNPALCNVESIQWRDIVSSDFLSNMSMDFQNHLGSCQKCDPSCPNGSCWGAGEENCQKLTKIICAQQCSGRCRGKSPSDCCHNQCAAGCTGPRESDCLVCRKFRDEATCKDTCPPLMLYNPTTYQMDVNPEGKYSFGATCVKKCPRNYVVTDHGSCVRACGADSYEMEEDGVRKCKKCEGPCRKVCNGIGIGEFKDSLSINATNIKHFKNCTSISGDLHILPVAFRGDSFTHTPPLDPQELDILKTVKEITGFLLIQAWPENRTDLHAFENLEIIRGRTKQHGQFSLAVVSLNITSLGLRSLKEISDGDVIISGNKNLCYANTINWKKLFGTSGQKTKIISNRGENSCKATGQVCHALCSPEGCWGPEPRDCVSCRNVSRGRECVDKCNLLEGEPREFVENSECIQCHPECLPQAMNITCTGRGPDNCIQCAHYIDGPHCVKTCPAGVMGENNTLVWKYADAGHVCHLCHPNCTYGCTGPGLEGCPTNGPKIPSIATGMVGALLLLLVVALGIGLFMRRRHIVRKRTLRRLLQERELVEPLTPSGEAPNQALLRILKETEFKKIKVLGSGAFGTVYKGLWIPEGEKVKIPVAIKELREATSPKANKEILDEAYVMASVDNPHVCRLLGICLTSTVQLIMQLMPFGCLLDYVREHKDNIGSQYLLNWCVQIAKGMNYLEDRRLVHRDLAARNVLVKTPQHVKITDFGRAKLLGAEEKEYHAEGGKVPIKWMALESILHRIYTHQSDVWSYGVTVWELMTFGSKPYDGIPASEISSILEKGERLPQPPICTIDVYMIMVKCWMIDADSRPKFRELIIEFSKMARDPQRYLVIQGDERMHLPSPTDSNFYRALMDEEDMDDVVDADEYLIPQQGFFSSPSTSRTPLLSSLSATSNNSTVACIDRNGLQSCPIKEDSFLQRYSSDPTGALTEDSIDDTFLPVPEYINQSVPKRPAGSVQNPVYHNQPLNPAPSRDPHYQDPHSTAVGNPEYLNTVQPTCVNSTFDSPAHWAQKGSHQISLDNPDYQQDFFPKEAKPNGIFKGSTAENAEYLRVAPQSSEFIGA

Structure (SMILES): CN1CCC(c2ccc(-c3cc(F)c4c(=O)n(C(C(=O)Nc5nccs5)c5ncn6c5CCC6)ccc4c3)cc2)CC1 (centres unmarked) [Compound 001, 2-(6,7-Dihydro-5H-pyrrolo[1,2-c]imidazol-1-yl)-2-(8-fluoro-6-(4-(1-methylpiperidin-4-yl)phenyl)-1-oxoisoquinolin-2(1H)-yl)-N-(thiazol-2-yl)acetamide]
- IC50 [1]: < 0.5 nM
- IC50 [2]: < 5 nM
- GI50 [3]: < 500 nM
- GI50 [4]: < 100 nM

Structure (SMILES): CN1CCC(c2ccc(-c3cc(F)c4c(=O)n(C(C(=O)Nc5nccs5)c5ncn6c5C[C@@H](F)C6)ccc4c3)cc2)CC1 (stereo partly drawn) [Compound 002, 2-((R)-6-Fluoro-6,7-dihydro-5H-pyrrolo[1,2-c]imidazol-1-yl)-2-(8-fluoro-6-(4-(1-methylpiperidin-4-yl)phenyl)-1-oxoisoquinolin-2(1H)-yl)-N-(thiazol-2-yl)acetamide]
- IC50 [1]: < 1 nM
- IC50 [2]: < 5 nM
- GI50 [3]: < 500 nM
- GI50 [4]: < 500 nM

Structure (SMILES): CN1CCC(c2ccc(-c3cc4ccn(C(C(=O)Nc5nccs5)c5ncn6c5CCC6)c(=O)c4s3)cc2)CC1 (centres unmarked) [Compound 003, 2-(6,7-Dihydro-5H-pyrrolo[1,2-c]imidazol-1-yl)-2-(2-(4-(1-methylpiperidin-4-yl)phenyl)-7-oxothieno[2,3-c]pyridin-6(7H)-yl)-N-(thiazol-2-yl)acetamide]
- IC50 [1]: < 0.5 nM
- IC50 [2]: < 5 nM
- GI50 [3]: < 500 nM
- GI50 [4]: < 100 nM

Structure (SMILES): CN1CCC(c2ccc(-c3cc4ccn(C(C(=O)Nc5nccs5)c5ncn6c5C[C@@H](F)C6)c(=O)c4s3)cc2)CC1 (stereo partly drawn) [Compound 004, 2-((R)-6-Fluoro-6,7-dihydro-5H-pyrrolo[1,2-c]imidazol-1-yl)-2-(2-(4-(1-methylpiperidin-4-yl)phenyl)-7-oxothieno[2,3-c]pyridin-6(7H)-yl)-N-(thiazol-2-yl)acetamide]
- IC50 [1]: < 0.5 nM
- IC50 [2]: < 5 nM
- GI50 [3]: < 5000 nM
- GI50 [4]: < 500 nM

Structure (SMILES): CN1CCC(c2ccc(-c3ccc4ncn(C(C(=O)Nc5nccs5)c5ncn6c5CCC6)c(=O)c4c3)cc2)CC1 (centres unmarked) [Compound 005, 2-(6,7-Dihydro-5H-pyrrolo[1,2-c]imidazol-1-yl)-2-(6-(4-(1-methylpiperidin-4-yl)phenyl)-4-oxoquinazolin-3(4H)-yl)-N-(thiazol-2-yl)acetamide]
- IC50 [1]: < 0.5 nM
- IC50 [2]: < 1 nM
- GI50 [3]: < 500 nM
- GI50 [4]: < 100 nM

Structure (SMILES): CN1CCC(c2ccc(-c3ccc4ncn(C(C(=O)Nc5nccs5)c5ncn6c5CCC6)c(=O)c4c3F)cc2)CC1 (centres unmarked) [Compound 006, 2-(6,7-Dihydro-5H-pyrrolo[1,2-c]imidazol-1-yl)-2-(5-fluoro-6-(4-(1-methylpiperidin-4-yl)phenyl)-4-oxoquinazolin-3(4H)-yl)-N-(thiazol-2-yl)acetamide]
- IC50 [1]: < 0.5 nM
- IC50 [2]: < 5 nM
- GI50 [3]: < 500 nM
- GI50 [4]: < 100 nM

Structure (SMILES): CN1CCN(c2ccc(-c3ccc4ncn(C(C(=O)Nc5nccs5)c5ncn6c5CCC6)c(=O)c4c3)cc2)CC1 (centres unmarked) [Compound 007, 2-(6,7-Dihydro-5H-pyrrolo[1,2-c]imidazol-1-yl)-2-(6-(4-(4-methylpiperazin-1-yl)phenyl)-4-oxoquinazolin-3(4H)-yl)-N-(thiazol-2-yl)acetamide]
- IC50 [1]: < 5 nM
- IC50 [2]: > 5 nM
- GI50 [3]: < 5000 nM
- GI50 [4]: < 5000 nM

Structure (SMILES): CN1CCC(c2ccc(-c3ccc4c(c3)C(=O)N(C(C(=O)Nc3nccs3)c3ncn5c3CCC5)CO4)cc2)CC1 (centres unmarked) [Compound 008, 2-(6,7-Dihydro-5H-pyrrolo[1,2-c]imidazol-1-yl)-2-(6-(4-(1-methylpiperidin-4-yl)phenyl)-4-oxo-2H-benzo[e][1,3]oxazin-3(4H)-yl)-N-(thiazol-2-yl)acetamide]
- IC50 [1]: < 0.5 nM
- IC50 [2]: < 5 nM
- GI50 [3]: < 500 nM
- GI50 [4]: < 100 nM
